In patent US10869929B2, “Phosphonate linkers and their use to facilitate cellular retention of compounds” (priority 2016, dated 2020):
Values belong to the molecule of their own block, whether it stands above or below them.

Legend:
GILZ gene = GILZ gene assay (qPCR, HUT78 / 786-O cells); format: cell-based; details: for EC50: read-out: GILZ EC50
MDCKII cells = assay: Apparent permeability in MDCKII cells; format: in vitro ADME; details: 1 μM, t=3 hr, average of A to B and B to A Papp
glucocorticoid receptor = glucocorticoid receptor (Homo sapiens (Human), UniProt P04150); assay: PolarScreen Glucocorticoid Receptor Competitor Assay (GR binding); details: fluormone GS red, GR full length protein; read-out: GR Bind IC50
ZBTB16 mRNA = assay: Up-regulation of ZBTB16 mRNA in primary human B cells; format: cell-based; details: for EC50: free payload
Procedure: The carrier solution for all ADCs and naked antibodies was 50 mM histidine pH 6.0, 100 mM NaCl and 5% trehelose. To assure consistency across experiments, ADCs were thawed on ice, dispensed to small aliquots, frozen to −80° C., and those aliquots were then used for experiments with unused material discarded at the end of the day. For all in vitro studies in this report, none of the read outs were measurably different in the presence or absence of the carrier solution. Nevertheless, the final concentration of antibody carrier solution was maintained constant at 1% v/v by serially diluting antibody solution prior to addition to the assay mixture and adding carrier solution to control wells.
For the studies of ADCs bearing reduced permeability payloads frozen human CD19+ B cells purchased from Precision Biosciences (catalog #84400, donor #13108) were thawed and re-suspended in RPMI1640 plus 10% heat-inactivated FBS (cell culture medium) at 1 million cells/mL. […] B cells were bulk treated in a 96-well block and subsequently dispensed to 96 well plates (100 μL and […] cells per well) and incubated at 37° C., 5% CO2 for 18 or 40 hr. Control wells containing equal percentages of DMSO (0.1%) and ADC buffer (1%) as sample wells were included. Cells were transferred to a 96 well v-bottom plate and spun at 500×g for 5 min. Medium was removed and cells were lysed in 150 μL RLT buffer containing beta-mercaptoethanol. RNA was isolated (RNeasy 96 kit, Qiagen, Cat #74181) and cDNA was synthesized (iScript cDNA Synthesis Kit, BioRad, Cat #170-8891) according to the supplier's protocol. Quantitative PCR was performed on Applied Biosystem's 7900 HT Real-Time PCR System to measure expression of ZBTB16 (Life Technologies, Hs00957433_m1) and GAPDH (Life Technologies, Hs02758991_g1) in duplex format.
The ΔΔCt method was used to calculate fold change of expression of ZBTB16 relative to control sample, using 3 replicates per treatment condition. For free cell impermeable compounds, B cells were seeded at 100,000 cells/well in 90 μL in a 96-well flat bottom plate. Three fold serial dilutions were performed in DMSO, subsequent intermediate 10× stocks were made in tissue-culture medium and then added to the cell plate (10 μL/well). Cells were incubated at 37° C., 5% CO2 for 18 hr, harvested and processed for PCR as described above. EC50 curves were calculated using Graph Pad Prism 6 software using nonlinear fit (agonist) vs. response-variable slope (four parameters) calculation.
Potency and maximum activity of reduced permeability glucocorticoids (free payload) and the corresponding anti-CD74-drug conjugates on up-regulation of ZBTB16 mRNA levels in primary human B cells in vitro.

glucocorticoid receptor, sequence (P04150 whole entry): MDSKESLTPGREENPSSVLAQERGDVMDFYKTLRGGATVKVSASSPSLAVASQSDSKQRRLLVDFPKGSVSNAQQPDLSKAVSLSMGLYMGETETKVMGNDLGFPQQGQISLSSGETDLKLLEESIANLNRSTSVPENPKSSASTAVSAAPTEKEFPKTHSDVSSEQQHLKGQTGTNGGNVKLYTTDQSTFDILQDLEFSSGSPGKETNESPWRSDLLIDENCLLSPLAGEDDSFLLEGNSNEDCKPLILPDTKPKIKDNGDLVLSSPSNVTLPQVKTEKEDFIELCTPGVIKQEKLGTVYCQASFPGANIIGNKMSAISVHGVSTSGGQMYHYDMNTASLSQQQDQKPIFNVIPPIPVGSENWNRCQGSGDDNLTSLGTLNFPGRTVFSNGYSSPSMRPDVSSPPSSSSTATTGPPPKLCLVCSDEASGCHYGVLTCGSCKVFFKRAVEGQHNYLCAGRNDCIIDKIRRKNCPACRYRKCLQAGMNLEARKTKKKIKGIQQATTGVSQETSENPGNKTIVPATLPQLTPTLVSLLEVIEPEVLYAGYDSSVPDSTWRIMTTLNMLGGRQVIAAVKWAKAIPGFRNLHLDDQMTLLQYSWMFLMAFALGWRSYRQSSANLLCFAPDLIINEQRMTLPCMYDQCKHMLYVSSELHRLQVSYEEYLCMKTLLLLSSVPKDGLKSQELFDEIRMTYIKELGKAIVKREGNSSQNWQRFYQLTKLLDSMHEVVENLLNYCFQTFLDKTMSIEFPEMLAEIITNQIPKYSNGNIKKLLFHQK

EC50 (GILZ gene): 1 nM
MDCK Permeability (cm × 10−6/sec) (MDCKII cells): 31.6 cm × 10−6/sec
Molecule: CCCC1O[C@@H]2C[C@H]3[C@@H]4CCC5=CC(=O)C=C[C@]5(C)[C@H]4[C@@H](O)C[C@]3(C)[C@]2(C(=O)CO)O1 (stereo partly drawn) [Budesonide, reference compound]
GILZ Max (GILZ gene; concentration not given): 100%

Molecule: CCC(=O)O[C@]1(C(=O)SCCCCCCCCCCP(=O)(O)O)[C@H](C)C[C@H]2[C@@H]3C[C@H](F)C4=CC(=O)C=C[C@]4(C)[C@@]3(F)[C@@H](O)C[C@@]21C [Compound 3, (10-(((6S,8S,9R,10S,11S,13S,14S,16R,17R)-6,9-difluoro-11-hydroxy-10,13,16-trimethyl-3-oxo-17-(propionyloxy)-6,7,8,9,10,11,12,13,14,15,16,17-dodecahydro-3H-cyclopenta[a]phenanthrene-17-carbonyl)thio)decyl)phosphonic acid]
IC50 (glucocorticoid receptor): 0.44 nM
GILZ Max (GILZ gene; at 10 uM): 71% (at
EC50 (GILZ gene): 649 nM
MDCK Permeability (cm × 10−6/sec) (MDCKII cells): 1.04 cm × 10−6/sec
ZBTB16 mRNA Max relative to free fluticasone (ZBTB16 mRNA): 75%
EC50 (ZBTB16 mRNA; B-cell): 1100 nM

Molecule: CCC(=O)O[C@]1(C(=O)SCCCCP(=O)(O)O)[C@H](C)C[C@H]2[C@@H]3C[C@H](F)C4=CC(=O)C=C[C@]4(C)[C@@]3(F)[C@@H](O)C[C@@]21C [Compound 4]
IC50 (glucocorticoid receptor): 0.71 nM
GILZ Max (GILZ gene; at 100 nM): <10% (at
EC50 (GILZ gene): > 100 nM
MDCK Permeability (cm × 10−6/sec) (MDCKII cells): 1.72 cm × 10−6/sec

Molecule: C[C@@H]1C[C@H]2[C@@H]3C[C@H](F)C4=CC(=O)C=C[C@]4(C)[C@@]3(F)[C@@H](O)C[C@]2(C)[C@@]1(O)C(=O)SCCCCP(=O)(O)O [Compound 5]
IC50 (glucocorticoid receptor): 160 nM
GILZ Max (GILZ gene; at 100 nM): 24% (at
EC50 (GILZ gene): > 10000 nM
MDCK Permeability (cm × 10−6/sec) (MDCKII cells): 1.84 cm × 10−6/sec

Molecule: CCC(=O)O[C@]1(C(=O)SCCOCCOCCP(=O)(O)O)[C@H](C)C[C@H]2[C@@H]3C[C@H](F)C4=CC(=O)C=C[C@]4(C)[C@@]3(F)[C@@H](O)C[C@@]21C [Compound 6]
IC50 (glucocorticoid receptor): 0.32 nM
GILZ Max (GILZ gene; at 10 uM): 40% (at
EC50 (GILZ gene): > 10000 nM

Molecule: CCC(=O)O[C@]1(C(=O)SCCCCCCP(=O)(O)O)[C@H](C)C[C@H]2[C@@H]3C[C@H](F)C4=CC(=O)C=C[C@]4(C)[C@@]3(F)[C@@H](O)C[C@@]21C [Compound 7]
IC50 (glucocorticoid receptor): 0.45 nM
GILZ Max (GILZ gene; at 10 uM): 64% (at
EC50 (GILZ gene): 6450 nM
MDCK Permeability (cm × 10−6/sec) (MDCKII cells): 2 cm × 10−6/sec

Molecule: C[C@@H]1C[C@H]2[C@@H]3C[C@H](F)C4=CC(=O)C=C[C@]4(C)[C@@]3(F)[C@@H](O)C[C@]2(C)[C@@]1(O)C(=O)SCCCCCCCCCCP(=O)(O)O [Compound 8]
IC50 (glucocorticoid receptor): 0.25 nM
GILZ Max (GILZ gene; at 10 uM): 66% (at
EC50 (GILZ gene): 970 nM
MDCK Permeability (cm × 10−6/sec) (MDCKII cells): 2.8 cm × 10−6/sec

Molecule: C[C@@H]1C[C@H]2[C@@H]3C[C@H](F)C4=CC(=O)C=C[C@]4(C)[C@@]3(F)[C@@H](O)C[C@]2(C)[C@@]1(O)C(=O)SCCOCCOCCP(=O)(O)O [Compound 9]
IC50 (glucocorticoid receptor): 1.67 nM
GILZ Max (GILZ gene; at 10 uM): 14.5%
EC50 (GILZ gene): > 10000 nM

Molecule: C[C@@H]1C[C@H]2[C@@H]3C[C@H](F)C4=CC(=O)C=C[C@]4(C)[C@@]3(F)[C@@H](O)C[C@]2(C)[C@@]1(O)C(=O)SCCCCCCP(=O)(O)O [Compound 10]
IC50 (glucocorticoid receptor): 1.99 nM
GILZ Max (GILZ gene; at 10 uM): 17.3%
EC50 (GILZ gene): > 10000 nM
MDCK Permeability (cm × 10−6/sec) (MDCKII cells): 1.9 cm × 10−6/sec

Molecule: C[C@@H]1C[C@H]2[C@@H]3C[C@H](F)C4=CC(=O)C=C[C@]4(C)[C@@]3(F)[C@@H](O)C[C@]2(C)[C@@]1(O)C(=O)SCCP(=O)(O)O [Compound 11]
GILZ Max (GILZ gene; at 10 uM): 81% (at
EC50 (GILZ gene): 2860 nM

Molecule: CCC(=O)O[C@]1(C(=O)SCCP(=O)(O)O)[C@H](C)C[C@H]2[C@@H]3C[C@H](F)C4=CC(=O)C=C[C@]4(C)[C@@]3(F)[C@@H](O)C[C@@]21C [Compound 12]
IC50 (glucocorticoid receptor): 162 nM
GILZ Max (GILZ gene; at 10 uM): 36% (at
EC50 (GILZ gene): 6780 nM

Molecule: C[C@@H]1C[C@H]2[C@@H]3C[C@H](F)C4=CC(=O)C=C[C@]4(C)[C@@]3(F)[C@@H](O)C[C@]2(C)[C@@]1(O)C(=O)SCCCP(=O)(O)O [Compound 13]
IC50 (glucocorticoid receptor): 1220 nM
GILZ Max (GILZ gene; at 10 uM): 24% (at
EC50 (GILZ gene): > 10000 nM

Molecule: CCC(=O)O[C@]1(C(=O)SCCCP(=O)(O)O)[C@H](C)C[C@H]2[C@@H]3C[C@H](F)C4=CC(=O)C=C[C@]4(C)[C@@]3(F)[C@@H](O)C[C@@]21C [Compound 14]
IC50 (glucocorticoid receptor): 18.1 nM
GILZ Max (GILZ gene; at 10 uM): 15% (at
EC50 (GILZ gene): > 10000 nM

Molecule: C[C@@H]1C[C@H]2[C@@H]3C[C@H](F)C4=CC(=O)C=C[C@]4(C)[C@@]3(F)[C@@H](O)C[C@]2(C)[C@@]1(OC(=O)CCCCCP(=O)(O)O)C(=O)SCF [Compound 19, (6-(((6S,8S,9R,10S,11S,13S,14S,16R,17R)-6,9-difluoro-17-(((fluoromethyl)thio)carbonyl)-11-hydroxy-10,13,16-trimethyl-3-oxo-6,7,8,9,10,11,12,13,14,15,16,17-dodecahydro-3H-cyclopenta[a]phenanthren-17-yl)oxy)-6-oxohexyl)phosphonic acid]
IC50 (glucocorticoid receptor): 0.14 nM
GILZ Max (GILZ gene; at 10 uM): 88% (at
EC50 (GILZ gene): 1290 nM

Molecule: CCCC1O[C@@H]2C[C@H]3[C@@H]4CCC5=Cc6c(cnn6-c6cccc(OCCCCP(=O)(O)O)c6)C[C@]5(C)[C@H]4[C@@H](O)C[C@]3(C)[C@]2(C(=O)CO)O1 (stereo partly drawn) [Compound 28]
IC50 (glucocorticoid receptor): 4.1 nM
GILZ Max (GILZ gene; at 10 uM): 101% (at
EC50 (GILZ gene): 1270 nM
MDCK Permeability (cm × 10−6/sec) (MDCKII cells): 1.6 cm × 10−6/sec

Molecule: CCCC1O[C@@H]2C[C@H]3[C@@H]4CCC5=Cc6c(cnn6-c6cccc(OCCCCCCCCCP(=O)(O)O)c6)C[C@]5(C)[C@H]4[C@@H](O)C[C@]3(C)[C@]2(C(=O)CO)O1 (stereo partly drawn) [Compound 29]
IC50 (glucocorticoid receptor): 24.2 nM
GILZ Max (GILZ gene; at 10 uM): 96% (at
EC50 (GILZ gene): 558 nM

Molecule: CCCC1O[C@@H]2C[C@H]3[C@@H]4CCC5=Cc6c(cnn6-c6ccc(OCCCCP(=O)(O)O)cc6)C[C@]5(C)[C@H]4[C@@H](O)C[C@]3(C)[C@]2(C(=O)CO)O1 (stereo partly drawn) [Compound 30]
IC50 (glucocorticoid receptor): 2.4 nM
GILZ Max (GILZ gene; at 10 uM): 61% (at
EC50 (GILZ gene): 3010 nM
MDCK Permeability (cm × 10−6/sec) (MDCKII cells): 1.9 cm × 10−6/sec

Molecule: CCCC1O[C@@H]2C[C@H]3[C@@H]4CCC5=Cc6c(cnn6-c6ccc(OCCCCCCP(=O)(O)O)cc6)C[C@]5(C)[C@H]4[C@@H](O)C[C@]3(C)[C@]2(C(=O)CO)O1 (stereo partly drawn) [Compound 31]
IC50 (glucocorticoid receptor): 3.9 nM
GILZ Max (GILZ gene; at 10 uM): 47% (at
EC50 (GILZ gene): 4180 nM
MDCK Permeability (cm × 10−6/sec) (MDCKII cells): 4.1 cm × 10−6/sec

Molecule: CCCC1O[C@@H]2C[C@H]3[C@@H]4CCC5=Cc6c(cnn6-c6ccc(OCCCCCCCCCP(=O)(O)O)cc6)C[C@]5(C)[C@H]4[C@@H](O)C[C@]3(C)[C@]2(C(=O)CO)O1 (stereo partly drawn) [Compound 32]
IC50 (glucocorticoid receptor): 115 nM
GILZ Max (GILZ gene; at 10 uM): 86% (at
EC50 (GILZ gene): 4150 nM

EC50 (GILZ gene): 3.7 nM
Molecule: C[C@@H]1C[C@H]2[C@@H]3CCC4=CC(=O)C=C[C@]4(C)[C@@]3(F)[C@@H](O)C[C@]2(C)[C@@]1(O)C(=O)CO [Dexamethasone, reference compound]
GILZ Max (GILZ gene; concentration not given): 100%

EC50 (GILZ gene): 0.2 nM
MDCK Permeability (cm × 10−6/sec) (MDCKII cells): 21.5 cm × 10−6/sec
EC50 (ZBTB16 mRNA): 0.019 nM
Molecule: CCC(=O)O[C@]1(C(=O)SCF)[C@H](C)C[C@H]2[C@@H]3C[C@H](F)C4=CC(=O)C=C[C@]4(C)[C@@]3(F)[C@@H](O)C[C@@]21C [Fluticasone Propionate, reference compound]
GILZ Max (GILZ gene; concentration not given): 100%

Molecule: (6-(3-((3aR,4aS,4bS,11aR,11bS,12S,13aS,13bS)-12-hydroxy-13b-(2-hydroxyacetyl)-11a,13a-dimethyl-2-propyl-4,4a,5,6,11,11a,11b,12,13,13a-decahydro-[1,3]dioxolo[4″,5″:3′,4′]cyclopenta[1′,2′:5,6]naphtho[1,2-f]indazol-8 (3aH,4bH,13bH)-yl)phenoxy)hexyl)phosphonic acid [Compound 27]
GILZ Max (GILZ gene; at 10 uM): 80% (at
EC50 (GILZ gene): 2760 nM
